Reference: PMC8512562, “Semisynthetic Derivatives of Selected Amaryllidaceae Alkaloids as a New Class of Antimycobacterial Agents” (Molecules, 2021)
Values after ≈ are worked out from the molar mass of the structure shown. Like-named read-outs stand apart in the source and are kept apart here.

Experiments:
[1] = tested on: M. tuberculosis H37Ra, M. aurum and M. smegmatis; assay: Antimycobacterial screening, MICs stated over all studied strains; type: cell-based, Mycobacterium; conditions: read-out: MICs against all studied strains
[2] = tested on: Mycobacterium aurum DSM 43999 (ATCC 23366); assay: Antimycobacterial screening (microdilution broth, resazurin) against M. aurum; type: cell-based; conditions: for MIC: Mycolicibacterium aurum, read-out: MIC M. aurum; for MIC values for standards, range, M. aurum: range of MIC of the standards in the assay
[3] = tested on: Mycobacterium tuberculosis H37Ra; assay: Antimycobacterial screening (microdilution broth, resazurin) against M. tuberculosis H37Ra; type: cell-based; conditions: for MIC: Mycobacterium tuberculosis; for MIC values for standards, range, M. tuberculosis: range of MIC of the standards in the assay
HepG2 cells = assay: cells; type: cell-based, Human; conditions: for IC50: Homo sapiens, HepG2, MTT, 24 h incubation
[4] = tested on: Mycobacterium smegmatis DSM 43465 (ATCC 607); assay: Antimycobacterial screening (microdilution broth, resazurin) against M. smegmatis; type: cell-based; conditions: for MIC: Mycolicibacterium smegmatis, read-out: MIC M. smegmatis
[5] = range over M. tuberculosis H37Ra, M. aurum, M. smegmatis
[6] = H37RA, read-out: MIC Mtb H37Ra (µM)
[7] = M. tuberculosis H37Ra, resazurin added after 120 h, read-out: MIC Mtb H37Ra
[8] = H37RA, 120 h, read-out: MIC Mtb H37Ra

Compound	MIC [1, 5] [µg/mL]	MIC ([1]; range over the studied strains) [µM]	MIC ([2]; 72 h) [µg/mL]	MIC [3, 6] [µM]	MIC [3, 7] [µg/mL]	SI (selectivity index) (HepG2 cells)	IC50 (HepG2 cells) [µM]	MIC ([4]; 48 h) [µg/mL]	MIC ([2]; resazurin added after 72 h) [µg/mL]	MIC values for standards, range, M. aurum [2] [µg/mL]	MIC [3, 8] [µg/mL]	MIC values for standards, range, M. tuberculosis [3] [µg/mL]	MIC ([4]; resazurin added after 48 h) [µg/mL]	MIC values for standards, range, M. smegmatis ([4]; range of MIC of the standards in the assay) [µg/mL]
CCOc1cc(OCC)cc(C(=O)O[C@H]2C=C[C@@]34CCN(C)Cc5ccc(OC)c(c53)O[C@H]4C2)c1 [1p, 6-O-(3,5-diethoxybenzoyl)galanthamine]	3.91 to 15.6	7.6 to 30.2	7.81 (≈ 16.3 µM)	7.6	3.91	2.64	20.1 ± 2.1	15.6 (≈ 32.6 µM)						
COc1cc2c(cc1OC)[C@@]13C=C[C@@H](OC(=O)c4cccc5ccccc45)C[C@@H]1N(CC3)C2 [5b, 3-O-(1-naphthoyl)maritidine]	3.91 to 15.6		7.81 (≈ 17.7 µM)	16.3	7.81	1.03	16.8 ± 7.1	15.6 (≈ 35.4 µM)						
COc1ccc2c3c1O[C@H]1C[C@@H](OC(=O)c4cc(C)cc(C)c4)C=C[C@@]31CCN(C)C2 [1f, 6-O-(3,5-dimethylbenzoyl)galanthamine]			7.81 (≈ 18.6 µM)	17.1	7.81	1.03	17.6 ± 4.7	7.81 (≈ 18.6 µM)						
COC1CC2C(=CC1OC(=O)c1cccc3ccccc13)C1CN2Cc2cc3c(cc21)OCO3 (stereo not drawn) [3f, 2-O-(1-naphthoyl)-3-O-methylpancracine]	3.91		3.91 (≈ 8.58 µM)	7.9	3.91	3.51	27.7 ± 4.7	3.91 (≈ 8.58 µM)						
COc1ccc2c3c1O[C@H]1C[C@@H](OC(=O)c4c(C)cc(C)cc4C)C=C[C@@]31CCN(C)C2 [1g, 6-O-(2,4,6-trimethylbenzoyl)galanthamine]			15.6 (≈ 36 µM)	18	7.81	0.77	13.9 ± 0.8	31.2 (≈ 72.1 µM)						
COc1ccc2c3c1O[C@H]1C[C@@H](OC(=O)c4ccc5ccccc5c4)C=C[C@@]31CCN(C)C2 [1r, 6-O-(2-naphthoyl)galanthamine]	1.98 to 7.81		3.91 (≈ 8.86 µM)	4.1	1.98	5.17	21.2 ± 3.8	7.81 (≈ 17.7 µM)						
COc1ccc2c3c1O[C@H]1C[C@@H](OC(=O)c4ccc(C(C)(C)C)cc4)C=C[C@@]31CCN(C)C2 [1h, 6-O-(4-tert-butylbenzoyl)galanthamine]	3.12 to 7.81		7.81 (≈ 17.4 µM)	6.9	3.12	2.43	16.8 ± 4.2	7.81 (≈ 17.4 µM)						
CCCCc1ccc(C(=O)OC2C=C3C4CN(Cc5cc6c(cc54)OCO6)C3CC2OC)cc1 (stereo not drawn) [3d, 2-O-(4-butylbenzoyl)-3-O-methylpancracine]			7.81 (≈ 16.9 µM)	7.9	3.91	2.59	20.5 ± 0.7	7.81 (≈ 16.9 µM)						
COc1ccc2c3c1O[C@H]1C[C@@H](OC(=O)c4cccc(C)c4C)C=C[C@@]31CCN(C)C2 [1e, 6-O-(2,3-dimethylbenzoyl)galanthamine]			15.6 (≈ 37.2 µM)	17.1	7.81	1.05	17.9 ± 2.6	31.2 (≈ 74.5 µM)						
CO[C@H]1/C=C/O[C@@]2(C)Oc3c(C)c(O)c4c(O)c(c(/C=N/N5CCN(C)CC5)c(O)c4c3C2=O)NC(=O)/C(C)=C\C=C\[C@H](C)[C@H](O)[C@@H](C)[C@@H](O)[C@@H](C)[C@H](OC(C)=O)[C@@H]1C [rifampicin, reference compound]				0.0075					0.39 (≈ 0.474 µM)	0.39 to 0.78	0.00625	0.0039 to 0.0078	6.25 (≈ 7.59 µM)	
COC1CC2C(=CC1OC(=O)c1ccc3ccccc3c1)C1CN2Cc2cc3c(cc21)OCO3 (stereo not drawn) [3g, 2-O-(2-naphthoyl)-3-O-methylpancracine]			15.6 (≈ 34.3 µM)	31.8	15.6			15.6 (≈ 34.3 µM)						
COC1CC2C(=CC1OC(=O)c1ccc(C(C)(C)C)cc1)C1CN2Cc2cc3c(cc21)OCO3 (stereo not drawn) [3c, 2-O-(4-tert-butylbenzoyl)-3-O-methylpancracine]			7.81 (≈ 16.9 µM)	7.9	3.91	3.08	24.3 ± 2.4	7.81 (≈ 16.9 µM)						
COc1cc2c(cc1OC)[C@@H](O)O[C@@H]1CC=C3CCN(C)[C@H]3[C@H]21 [lycorenine (9), lycorenine]			≥ 125	≥ 394	≥ 125			≥ 125						
COc1ccc2c3c1O[C@H]1C[C@@H](OC(=O)c4ccccc4C)C=C[C@@]31CCN(C)C2 [1b, 6-O-(2-methylbenzoyl)galanthamine]			31.2 (≈ 77.1 µM)	35.4	15.6			31.2 (≈ 77.1 µM)						
NNC(=O)c1ccncc1 [isoniazid, reference compound]			3.91 (≈ 28.5 µM)	1.82						1.95 to 3.91	0.25	0.125 to 0.25	31.2 (≈ 228 µM)	7.81 to 15.625
COc1ccc2c3c1O[C@H]1C[C@@H](O)C=C[C@@]31CCN(C)C2 [galanthamine (1), galanthamine, reference compound]			≥ 500	≥ 1740	≥ 500			≥ 500						
COc1cc2c(cc1OC)[C@@]13C=C[C@@H](O)C[C@@H]1N(CC3)C2 [maritidine (5), maritidine]			≥ 500	≥ 1740	≥ 500			≥ 500						
COc1ccc(C(=O)O[C@H]2C=C[C@@]34CCN(C)Cc5ccc(OC)c(c53)O[C@H]4C2)cc1 [1l, 6-O-(4-methoxybenzoyl)galanthamine]			31.2 (≈ 74.1 µM)	68.3	31.2			62.5 (≈ 148 µM)						
CCOc1cc(OCC)cc(C(=O)OC2C=C3C4CN(Cc5cc6c(cc54)OCO6)C3CC2OC)c1 (stereo not drawn) [3e, 2-O-(3,5-diethoxybenzoyl)-3-O-methylpancracine]			7.81 (≈ 15.8 µM)	7.8			24.9 ± 1.7	15.6 (≈ 31.7 µM)			3.91			
COC1CC2C(=CC1OC(=O)c1c(C)cc(C)cc1C)C1CN2Cc2cc3c(cc21)OCO3 (stereo not drawn) [3b, 2-O-(2,4,6-trimethylbenzoyl)-3-O-methylpancracine]			7.81 (≈ 17.5 µM)	16.1	7.81	1.94	31.2 ± 5.4	15.6 (≈ 34.9 µM)						
COC1CC2C(=CC1OC(=O)c1cc(C)cc(C)c1)C1CN2Cc2cc3c(cc21)OCO3 (stereo not drawn) [3a, 2-O-(3,5-dimethylbenzoyl)-3-O-methylpancracine]			7.81 (≈ 18 µM)	16.6	7.81	2.45	40.6 ± 7.6	15.6 (≈ 36 µM)						
COc1ccc(C(=O)O[C@H]2C=C[C@@]34CCN(C)Cc5ccc(OC)c(c53)O[C@H]4C2)cc1OC [1m, 6-O-(3,4-dimethoxybenzoyl)galanthamine]			125 (≈ 277 µM)	128	62.5			250 (≈ 554 µM)						
CO[C@H]1C=C2[C@H]3C[N@@](Cc4cc5c(cc43)OCO5)[C@H]2C[C@@H]1O [montanine (8), montanine]			≥ 500	≥ 1660	≥ 500			≥ 500						
COc1ccc2c3c1O[C@H]1C[C@@H](OC(=O)c4ccccc4)C=C[C@@]31CCN(C)C2 [1a, 6-O-benzoylgalanthamine]			31.2 (≈ 79.8 µM)	79.8	31.2								≥ 500	
